Measurements as given in ChEMBL document CHEMBL1152743, “Design and synthesis of 1,2-annulated adamantane piperidines with anti-influenza virus activity” (Bioorg Med Chem, 2009).
Active and inactive are the calls of the source. No cut-off for these calls is given here.

Key:
Influenza B virus = test: Antiviral activity against influenza B virus; type: functional, organism-based
Influenza A virus [1] = type: functional, organism-based; conditions: H3N2, 500 uM
[2] = Cytotoxicity against MDCK cells assessed as changes in cell morphology after 72 hrs […]; type: cell-based, Canis lupus familiaris; conditions: dog
[3] = Selectivity index, ratio of MCC for MDCK cells to EC50 for influenza A virus H3N2; type: toxicity, cell-based; conditions: dog
Influenza A virus [4] = test: microbe, parasite or virus in culture; conditions: H3N2, 72 h
Description: (§1) Antiviral activity against influenza A virus H3N2 assessed as inhibition of virus-induced cytopathic effect after 72 hrs by MTS assay

Influenza A virus [5] = tested on: Influenza A virus
Description: as §1

CCN1CCC23CC4CC(CC(C4)C2C1)C3 (stereo not given)
Activity (Influenza B virus): inactive | Activity (Influenza A virus [1]): inactive

CN1CCC2C3CC4CC(C3)CC2(C4)C1 (stereo not given)
Activity (Influenza B virus): inactive | Activity (Influenza A virus [1]): inactive

C1C2CC3CC1CC1(CNCC31)C2 (stereo not given)
Activity (Influenza B virus): inactive | MCC at 72 h [2]: 94 µM | selectivity ratio [3]: 200 | EC50 (Influenza A virus [4]): 500 nM

C1CNC2C3CC4CC(C3)CC2(C1)C4 (stereo not given)
Activity (Influenza B virus): inactive | MCC at 72 h [2]: 439 µM | selectivity ratio [3]: 106 | EC50 (Influenza A virus [4]): 4100 nM

CN1CCC23CC4CC(CC(C4)C2C1)C3 (stereo not given)
Activity (Influenza B virus): inactive | Activity (Influenza A virus [1]): inactive

NC12CC3CC(CC(C3)C1)C2 [AMANTADINE]
Activity (Influenza B virus): inactive | MCC at 72 h [2]: > 500 µM | selectivity ratio [3]: > 250 | EC50 (Influenza A virus [4]): 2000 nM

C1CC23CC4CC(CC(C4)C2N1)C3 (stereo not given)
Activity (Influenza B virus): inactive | MCC at 72 h [2]: 468 µM | selectivity ratio [3]: 217 | EC50 (Influenza A virus [4]): 2200 nM

CN1CC2C3CC4CC(C3)CC2(C4)C1 (stereo not given)
Activity (Influenza B virus): inactive | MCC at 72 h [2]: 83 µM | selectivity ratio [3]: 35 | EC50 (Influenza A virus [4]): 2400 nM

CN1CCC23CC4CC(CC(C4)C12)C3 (stereo not given)
Activity (Influenza B virus): inactive | MCC at 72 h [2]: 83 µM | selectivity ratio [3]: 11 | EC50 (Influenza A virus [4]): 7700 nM

CN1CCCC23CC4CC(CC(C4)C12)C3 (stereo not given)
Activity (Influenza B virus): inactive | MCC at 72 h [2]: 83 µM | selectivity ratio [3]: 19 | EC50 (Influenza A virus [4]): 4400 nM

CCN1CCC23CC4CC(CC(C4)C12)C3 (stereo not given)
Activity (Influenza B virus): inactive | MCC at 72 h [2]: 439 µM | selectivity ratio [3]: 128 | EC50 (Influenza A virus [4]): 3400 nM

C1CC23CC4CC(CC(C4)C2CN1)C3 (stereo not given)
Activity (Influenza B virus): inactive | Activity (Influenza A virus [1]): inactive

NC(=O)c1ncn([C@@H]2O[C@H](CO)[C@@H](O)[C@H]2O)n1 [RIBAVIRIN]
Activity (Influenza B virus): inactive | MCC at 72 h [2]: 20 µM | EC50 (Influenza A virus [5]): 8700 nM

CC(N)C12CC3CC(CC(C3)C1)C2 (stereo not given) [RIMANTADINE]
Activity (Influenza B virus): inactive | MCC at 72 h [2]: > 500 µM | EC50 (Influenza A virus [4]): 360 nM

C1CC2C3CC4CC(C3)CC2(CN1)C4 (stereo not given)
Activity (Influenza B virus): inactive | MCC at 72 h [2]: 439 µM | selectivity ratio [3]: > 732 | EC50 (Influenza A virus [4]): 600 nM
